Source: US11052082B2 (priority 2012, dated 2021)
Entries after “also recorded” stand apart in the source; their conditions may differ. Structures can show the parent of a compound that is named as a salt. Peptide text beside a SMILES is read from it. * marks the point of attachment. Cbz = O=C(OCc1ccccc1)*; CH2F = FC*

Experiments:
glioblastoma cells A172 = experiment: Apoptosis / cell death in glioblastoma cells A172; assay type: cell-based; settings: for effect on apoptosis induced by combination treatment with D,L-methadone and doxorubicin: 100 μg/mL naloxone or 25 μM IBMX, 3 μg/mL D,L-methadone, 0.3 μg/mL doxorubicin, 120 h
[1] = tested on: Pancreatic cancer cells Colo 357; experiment: Cell death in pancreatic cancer cells; assay type: cell-based
[2] = tested on: Trastuzumab resistant breast cancer cells JIMT-1; experiment: Apoptosis / cell death in JIMT-1 breast cancer cells; assay type: cell-based, human
[3] = tested on: human T cell leukemia, human acute myeloid leukemia, human B cell precursor leukemia, human B cell leukemia; experiment: Apoptosis in different leukemia cells, D,L-methadone plus cisplatin; assay type: cell-based
BCP-ALL-cell line Tanoue [4] = assay type: cell-based, human; settings: for effect on apoptosis rates of combination treatment with D,L-methadone and doxorubicin: 3 μg/mL D,L-methadone + 0.06 μg/mL doxorubicin, 60 μg/mL naloxone, 200 μM IBMX or PTX
[5] = tested on: A2780 ovarian cancer cells; experiment: Cell death in A2780 ovarian cancer cells; assay type: cell-based; settings: 2 μg/mL cisplatin alone; 144 h
[6] = tested on: opioid receptor on promyelocytic leukemia cell line HL60; experiment: Opioid receptor expression, HL60; assay type: cell-based, human; settings: 0.3 μg/mL cisplatin; 24 h
Protocol: (§1) Cells were washed in PBS supplemented with 1% FCS, centrifuged and resuspended in PBS/1% FCS containing naloxone-fluoresceine (0.05 mM, Invitrogen) (Hedin et al., 1997). After 30 min of incubation at RT, the cells were washed twice with PBS/1% FCS, centrifuged and resuspended in icecold PBS/1% FCS. Flowcytometry analysis was performed using FACSCalibur (BD, Heidelberg, Germany).
After staining of cisplatin-treated (+Cisplatin) and untreated cells (−Cisplatin) with naloxone-fluoresceine relative fluorescence intensities were determined flowcytometrically. 2.1-fold increase in opioid receptor expression is shown after subtracting the cells autofluorescence.

[7] = tested on: leukemia cancer cells (Nalm-6), pancreatic cancer cells (Colo357), ovarian cancer cells (A2780); experiment: Sensitization for etoposide or cisplatin treatment; assay type: cell-based; settings: 0.03 μg/mL etoposide or 0.3 μg/mL cisplatin; D,L-methadone 10, 3, 1 μg/mL; 120 to 144 h
pre-B-ALL-SCID = experiment: Apoptosis induction in xenograft-derived BCP-ALL cells; assay type: cell-based, human; settings: therapeutic concentrations of D,L-methadone alone; moderate opioid-receptor level
[8] = tested on: apoptosis pathways in glioblastoma-initiating stem cells; experiment: Western blot of apoptosis pathways in glioblastoma-initiating stem cells; assay type: cell-based; settings: 3 μg/mL D,L-methadone + 0.1 μg/mL doxorubicin; 144 h
BCP-ALL-cell line Tanoue [9] = experiment: Doxorubicin uptake and efflux, Tanoue; assay type: cell-based, human
U87MG glioblastoma = U87MG glioblastoma xenograft tumour growth; assay type: in vivo, nude-mice; settings: days 19 to 33
[10] = Tolerability (body weight) in U87MG xenograft mice; settings: D,L-methadone 60 to 240 mg/kg/d
[11] = Tolerability (body weight, maximum tolerated dose) in ALL-SCID6 xenograft mice; settings: same regimen as tumour growth study
[12] = tested on: caspase-8, -9, -3, PARP, XIAP, Bcl-xL in JIMT-1 cells; experiment: Western blot of apoptosis effectors in JIMT-1; assay type: cell-based, human; settings: D,L-methadone 10, 3, 1 μg/mL + 0.015 μg/mL doxorubicin; 96 h
[13] = tested on: caspases, PARP, XIAP, Bcl-xL in glioblastoma cells A172; experiment: Western blot of apoptosis effectors in A172; assay type: cell-based
[14] = tested on: BCP-ALL-cell lines (Tanoue, Reh, Nalm6); experiment: Apoptosis induction in BCP-ALL-cell lines; assay type: cell-based, human; settings: D,L-methadone alone; 120 h
[15] = tested on: glioblastoma cell line A172; experiment: Doxorubicin uptake and efflux, A172; assay type: cell-based; settings: 0.3 μg/mL doxorubicin
[16] = tested on: opioid receptor on glioblastoma cell line A172; experiment: Opioid receptor expression, A172; assay type: cell-based; settings: 0.1 μg/mL doxorubicin; 106 h
Protocol: as §1
(A) The glioblastoma cell line A172 was treated for 106 h with 0.1 μg/mL doxorubicin. After staining of doxorubicin-treated (doxorubicin) and untreated cells with naloxone-fluorescein (naloxone) relative fluorescence intensities were determined flowcytometrically. (B) Tabular summary of untreated and doxorubicin control cells, naloxone treated cells, whereas D(naloxone-control) represents the median fluorescence intensities after subtracting the cells' autofluorescence (control).

[17] = Serum concentrations in ALL-SCID6 xenograft mice; settings: male, NOD/SCID/IL2ry null (NSG), mouse, in vivo, 3 mg/kg
ALL-SCID6 xenograft = experiment: Patient-derived ALL-xenograft tumour growth; assay type: in vivo, NOD/SCID/IL2ry null (NSG) mice; settings: D,L-methadone orally day 1-76, 20 up to 120 mg/kg/day; doxorubicin 3 mg/kg i.v. day 46, 53, 60, 76
[18] = tested on: opioid-receptors on BCP-ALL-cell line Tanoue; experiment: Flow cytometric cell surface opioid-receptor expression, Tanoue; assay type: cell-based, human; settings: 0.06 μg/mL doxorubicin; 96 h
Protocol: as §1
(A) Doxorubicin enhances opioid receptor expression on the cells' surface. The BCP-ALL-cell line Tanoue was treated for 96 h with 0.06 μg/mL doxorubicin. After staining of doxorubicin-treated (+Doxo) and untreated cells (−Doxo) with naloxone-fluoresceine relative fluorescence intensities were determined flowcytometrically. X-fold increase in opioid receptor expression is shown after subtracting the cells' autofluorescence (−Doxo) and doxorubicin fluorescence (+Doxo).

glioblastoma cells = experiment: Apoptosis / cell death in glioblastoma cells (opioid comparison, naloxone); assay type: cell-based; settings: 60 μg/mL naloxone, 3 μg/mL D,L-methadone, 0.1 μg/mL doxorubicin; 120 h and 144 h
[19] = tested on: caspase-2, caspase-9, caspase-3, PARP, XIAP, Bcl-xL in BCP-ALL-cell line Tanoue; experiment: Western blot analysis of apoptosis effectors in Tanoue; assay type: cell-based, human; settings: 60 μg/mL naloxone; 96 h

Q: Which results are given for `CC(C)[C@H](NC(=O)OCc1ccccc1)C(=O)N[C@@H](C)C(=O)N[C@@H](CC(=O)O)C(=O)CF` [zVAD.fmk, benzoylcarbonyl-Val-Ala-Asp-fluoromethylketone] (Cbz-Val-Ala-Asp-CH2F)?
A: effect on apoptosis induced by cotreatment of D,L-methadone and doxorubicin (glioblastoma cells A172; 50 μmol/L zVAD.fmk, 0.1 μg/mL doxorubicin, 120 h and 144 h): blocks apoptosis; effect on apoptosis induced by D,L-methadone in addition to cisplatin ([1]; 50 μmol/L zVAD.fmk, cisplatin 0.7 or 0.5 μg/mL): almost completely inhibited apoptosis; effect on apoptosis induced by D,L-methadone in addition to oxaliplatin ([1]; 50 μmol/L zVAD.fmk, oxaliplatin 3 or 2 μg/mL): almost completely inhibited apoptosis; effect on apoptosis induced by cotreatment of D,L-methadone and doxorubicin ([2]; 50 μmol/L zVAD.fmk, 0.015 μg/mL doxorubicin, 96 h, 120 h): blocks apoptosis; effect on cell death after combination treatment with D,L-methadone and cisplatin ([3]; zVAD.fmk pre-incubation): strongly decreased cell death; effect on cell death after combination treatment with D,L-methadone and doxorubicin (BCP-ALL-cell line Tanoue [4]; 50 μM zVAD.fmk pre-incubation, 0.06 μg/mL doxorubicin, 120 h): strongly decreased cell death

Q: For `CC(C)Cn1c(=O)n(C)c(=O)c2[nH]cnc21` [IBMX, 3-Isobutyl-1-methylxanthine], which “effect on apoptosis induced by combination treatment with D,L-methadone and doxorubicin” value (glioblastoma cells A172; 144 h) is on record?
A: strongly reduced apoptosis induction

Q: And the “effect on doxorubicin-induced apoptosis” value (BCP-ALL-cell line Tanoue [4]; 200 μM IBMX, 0.06 μg/mL doxorubicin, 96 h)?
A: decreased doxorubicin-induced apoptosis

Q: And the “effect on apoptosis rates of combination treatment with D,L-methadone and doxorubicin” value (BCP-ALL-cell line Tanoue [4]; 96 h)?
A: strongly reduced the apoptosis rates

Q: With `N.N.[Cl][Pt][Cl]` [cisplatin] as the compound, how does the cell death [5] read?
A: 90%

Q: And the cell death ([1]; 10 μg/mL alone, 120 h)?
A: 60%

Q: What about the cell death ([1]; 10 μg/mL cisplatin alone, 144 h) of the same compound?
A: 70%

Q: What about the “increase in opioid receptor expression” value [6] of the same compound?
A: 2.1 fold

Q: For `CCC(=O)C(CC(C)N(C)C)(c1ccccc1)c1ccccc1` (racemic) [D,L-methadone, D,L-methadone hydrochloride], which “sensitization for etoposide or cisplatin treatment” value [7] is on record?
A: sensitizes

Q: What about the cell death induction (pre-B-ALL-SCID) of the same compound?
A: only be slightly killed

Q: What about the “activation of apoptosis pathways” value [8] of the same compound?
A: reversed deficient activation of apoptosis pathways by doxorubicin

Q: What about the doxorubicin efflux (BCP-ALL-cell line Tanoue [9]; 8 h and 24 h after removing doxorubicin) of the same compound?
A: reduced the doxorubicin efflux strongly

Q: And the doxorubicin uptake (BCP-ALL-cell line Tanoue [9]; co-incubation with 0.3 μg/mL doxorubicin, 24 h (0 h))?
A: enhanced doxorubicin concentration in the cells

Q: What about the “optimum T/C value” (U87MG glioblastoma; D,L-methadone orally daily, 60 to 120 to 240 mg/kg/d bid) of the same compound?
A: 49%

Q: And the “tumour size vs vehicle” value (U87MG glioblastoma)?
A: significantly reduced tumour size

Q: And the body weight loss [10]?
A: 9%

Q: What about the body weight changes [11] of the same compound?
A: −8%

Q: What about the caspases activation [12] of the same compound?
A: restored deficient caspases activation by doxorubicin

Q: And the cell death induction ([3]; D,L-methadone alone (−CDDP))?
A: only be killed slightly

Q: And the caspases activation ([13]; D,L-methadone 3, 1 μg/mL + 0.1 μg/mL doxorubicin, 144 h)?
A: restored deficient caspases activation by doxorubicin

Q: What about the cell death induction [14] of the same compound?
A: only be killed slightly

Q: And the doxorubicin efflux [15]?
A: inhibit the efflux

Q: And the doxorubicin uptake ([15]; 10 μg/mL D,L-methadone)?
A: enhance the uptake

Q: Which “effect on apoptosis rates of combination treatment with D,L-methadone and doxorubicin” value (BCP-ALL-cell line Tanoue [4]; 96 h) does the source give for pertussis toxin [PTX] here?
A: strongly reduced the apoptosis rates

Q: For `COc1cccc2c1C(=O)c1c(O)c3c(c(O)c1C2=O)C[C@@](O)(C(=O)CO)C[C@@H]3O[C@H]1C[C@H](N)[C@H](O)[C@H](C)O1` [doxorubicin], which “increase in opioid receptor expression” value [16] is on record?
A: 6 fold

Q: And the “serum concentrations of doxorubicin” value [17]?
A: 156 to 198 ng/mL

Q: And the cell death (glioblastoma cells A172; 1 μg/mL doxorubicin alone, 144 h)?
A: 80%

Q: What about the body weight changes [11] of the same compound?
A: −4%

Q: And the cell death ([2]; 0.1 μg/mL doxorubicin alone, 120 h)?
A: 70%

Q: What about the tumour growth inhibition (ALL-SCID6 xenograft) of the same compound?
A: significant inhibition of tumour growth

Q: And the opioid-receptor expression [18]?
A: strongly increased opioid-receptor expression

Q: What does the source list for `C=CCN1CC[C@]23c4c5ccc(O)c4O[C@H]2C(=O)CC[C@@]3(O)[C@H]1C5` [naloxone]?
A: effect on apoptosis rates of combination treatment with D,L-methadone and doxorubicin (glioblastoma cells): strongly reduced the apoptosis rates; effect on apoptosis induced by combination treatment with D,L-methadone and doxorubicin (glioblastoma cells A172; 144 h): strongly reduced apoptosis; effect on apoptosis induced by combination treatment with D,L-methadone and doxorubicin ([2]; 100 μg/mL naloxone, 10 μg/mL D,L-methadone, 0.01 μg/mL doxorubicin, 96 h): strongly reduced apoptosis; also recorded: strongly inhibits apoptosis induction; effect on caspase activation and PARP cleavage by D,L-methadone in addition to doxorubicin [19]: drastically reduced the activation of caspase-9, caspase-2 and caspase-3; effect on activation of caspase-9, caspase-3 and cleavage of PARP by combination treatment ([13]; 100 μg/mL naloxone, 120 h): strongly reduced
